Measured values reported in patent publication US6988613B2, “Composition for IVF” (Novo Nordisk A/S, priority 2001, dated 2006).
Converted amounts (≈) assume the structure as drawn. Where two headings read alike, the source gives them in different places.

Assays:
[1] = system: oocytes obtained from immature female mice; experiment: Germinal vesicle breakdown (GVB) test on mouse oocytes; type: cell-based
Method: Oocytes were obtained from immature female mice (C57BL/6J×DBA/2J F1, Bomholtgaard, Denmark) weighing 13–16 grams, that were kept under controlled temperature (20–22° C.), light (lights on 06.00–18.00) and relative humidity (50–70%). The mice received an intraperitoneal injection of 0.2 ml gonadotropins (Gonal-F, Serono) containing 20 IU FSH and 48 hours later the animals were killed by cervical dislocation. The ovaries were dissected out and the oocytes were isolated in Hx-medium (see below) under a stereo microscope by manual rupture of the follicles using a pair of 27 gauge needles. Spherical oocytes displaying an intact germinal vesicle (hereinafter designated GV) were divided in cumulus enclosed oocytes (hereinafter designated CEO) and naked oocytes (hereinafter designated NO) and placed in α-minimum essential medium (α-MEM without ribonucleosides, Gibco BRL, Cat. No. 22561) supplemented with 3 mg/ml bovine serum albumin (BSA, Sigma Cat. No. A-7030), 5 mg/ml human serum albumin (HSA, State Serum Institute, Denmark), 0.23 mM pyruvate (Sigma, Cat. No S-8636), 2 mM glutamine (Flow Cat. No. 16-801), 100 IU/ml penicillin and 100 μg/ml streptomycin (Flow, Cat No. 16-700). This medium was supplemented with 3 mM hypoxanthine (Sigma Cat. No. H-9377) and designated Hx-medium.
The oocytes were rinsed three times in Hx-medium and oocytes of uniform size were divided into groups of CEO and NO. CEO and NO were cultured in 4-well multidishes (Nunclon, Denmark) in which each well contained 0.4 ml of Hx-medium and the compound to be tested in a concentration of 10 μM. One control well (i.e., 35–45 oocytes cultured in identical medium with no addition of test compound) was always cultured simultaneously with 3 test wells (35–45 oocytes per well supplemented with test compound).
The oocytes were cultured in a humidified atmosphere of 5% CO2 in air for 24 hours at 37° C. By the end of the culture period, the number of oocytes with GV, GVB and polar bodies (hereinafter designated PB), respectively, were counted using a stereo microscope (Wildt, Leica MZ 12). The percentage of GVB, defined as percentage of oocytes undergoing GVB per total number of oocytes in that well, was calculated as: % GVB=((number of GVB+number of PB)/total number of oocytes)×100.
FF-MAS was dissolved in ethanol (25 μg FF-MAS/ml ethanol). HSA is dissolved in water (1%). 100 μl of the above mentioned ethanol solution (corresponding to the amount of FF-MAS needed for one treatment) and 350 μl of the above-mentioned HSA solution were mixed in a glass vial. The resulting mixture of FF-MAS and HSA was evaporated to dryness by airflow of argon. After the liquid was evaporated, the vial was sealed by a rubber septum and the vial was placed at a temperature of 2–8° C. At the time for usage, 500 μl of freshly prepared IVM media was added to the residue in the vial and shaken calmly for 1–2 minutes. The IVM media used was TCM 199 with Earle's salts (Sigma) to which was added 0.8% HSA, 2 mM L-glutamine, 0.25 mM sodium pyrovate, 100 IU/ml penicillin G, and 100 microgram/ml streptomycin. The liquid was transferred to a 4-well dish and the composition was tested on oocytes obtained from immature female mice. Percentage GVB obtained, see below in Table 1.
FF-MAS was dissolved in ethanol (20 μg FF-MAS/ml ethanol) and HSA was dissolved in water (1%). 100 μl of the above mentioned ethanol solution (corresponding to the amount of FF-MAS needed for one treatment) and 250 μl of the above-mentioned HSA solution were mixed and 350 μl of the combined liquid was aliquoted in a glass vials. The vials were placed at −80° C. for one night. All samples were thereafter freeze-dried at −45° C. for 16 hours followed by 8 hours freeze drying at −15° C. and 8 hours freeze drying at +25° C. Before the freeze dryer was opened all vials were automatically sealed with rubber septums by a pressure of nitrogen. The vials were closed with a capsule and placed at a temperature of 2–8° C. […]

[2] = Solubility of FF-MAS in water, ethanol and ethanol/water; type: physicochemical
Method: The solubility of a preferred MAS, i.e., FF-MAS, in water is very low, i.e., approximately 20 picogram/ml (corresponding to 2×10^−5 μg/ml). […] According to our preliminary investigations, the highest solubility of FF-MAS in a mixture of ethanol and water (1:2.5) is approximately 0.4 mg/ml. Several other MASs have a similar low solubility in water.

## CC(C)=CCC[C@@H](C)[C@H]1CC=C2C3=C(CC[C@@]21C)[C@@]1(C)CC[C@H](O)C(C)(C)[C@@H]1CC3 [FF-MAS, 4,4-dimethyl-5α-cholesta-8,14,24-triene-3β-ol]
[1]; Dose FF-MAS 0.24 μmol/l, in combination with HSA 6 mg/ml, Example 3
  % GVB: 86%
[1]; Dose FF-MAS 0.48 μmol/l, in combination with HSA 6 mg/ml, Example 3
  % GVB: 88%
[1]; Dose FF-MAS 1.2 μmol/l, in combination with HSA 6 mg/ml, Example 3
  % GVB: 91%
[1]; Dose FF-MAS 2.4 μmol/l, in combination with HSA 6 mg/ml, Example 3
  % GVB: 97%
[1]; Dose FF-MAS 10 μmol/l, internal control dissolved in ethanol, Example 3
  % GVB: 43%
[1]; Dose FF-MAS 10 μmol/l, internal control dissolved in ethanol, Example 4, first test
  % GVB: 85%
[1]; Dose FF-MAS 10 μmol/l, internal control dissolved in ethanol, Example 4, second test
  % GVB: 83%
[1]; Dose FF-MAS 10 μmol/l, internal control dissolved in ethanol, Example 8, 5 tests
  % GVB: 85%
[2]; ethanol/water (1:2.5), aqueous with cosolvent or surfactant or cyclodextrin, ethanol and water (1:2.5), preliminary investigations, read-out: highest solubility of FF-MAS in a mixture of ethanol and water
  solubility: ~0.4 mg/mL (≈ 0.974 mM)
[2]; in water
  solubility of FF-MAS in water: approximately 20 picogram/ml
[2]; organic solvent or mixture, in ethanol, read-out: solubility of FF-MAS in ethanol
  solubility: ~12 mg/mL (≈ 29.2 mM)
